Data: ChEMBL document CHEMBL1146038, “Hassallidin B--second antifungal member of the Hassallidin family” (2006)
Converted amounts (≈) assume the structure as drawn. Positions of bridges follow the written chain, without caps; N, C: chain ends. Non-standard residues stand in square brackets, D forms with d. Residues, ends and D or L forms follow the SMILES beside them. *: point of attachment. X3 = CCCCCCCCCCCC(O[C@@H]1O[C@@H](C)[C@H](O)[C@@H](O)[C@H]1O)C(O)C(=O)*; X2 = OC[C@H]1O[C@@H](*)[C@@H](O)[C@@H](O)[C@@H]1O; NMeT = CN[C@H](C(=O)O)[C@@H](C)O; X1 = CCCCCCCCCCCC(O)C(O)C(=O)*; Dhb = C/C=C(\N)C(=O)O

Key:
Assay type in all cases: functional
Candida parapsilosis [1] = test: Antifungal activity against Candida parapsilosis ATCC 22019; details: Lodderomyces parapsilosis
Pichia kudriavzevii [2] = test: Antifungal activity against Candida krusei ATCC 6258
Candida albicans [3] = test: Antifungal activity against Candida albicans SC 5314
Candida albicans [4] = test: Antifungal activity against Candida albicans ATCC 44374
Candida albicans [5] = test: Antifungal activity against Candida albicans ATCC 90028
Candida albicans [6] = test: Antifungal activity against Candida albicans ATCC 24433
Nakaseomyces glabratus [7] = test: Antifungal activity against Candida glabrata DSM 11950
Nakaseomyces glabratus [8] = test: Antifungal activity against Candida glabrata ATCC 90030
Candida parapsilosis [9] = test: Antifungal activity against Candida parapsilosis ATCC 90018; details: Lodderomyces parapsilosis
Candida tropicalis [10] = test: Antifungal activity against Candida tropicalis ATCC 90874
Candida tropicalis [11] = test: Antifungal activity against Candida tropicalis ATCC 750
Pichia kudriavzevii [12] = test: Antifungal activity against Candida krusei ATCC 90878
Cryptococcus neoformans [13] = test: Antifungal activity against Cryptococcus neoformans ATCC 34543
Cryptococcus neoformans [14] = test: Antifungal activity against Cryptococcus neoformans DSM 6973
Cryptococcus neoformans [15] = test: Antifungal activity against Cryptococcus neoformans CBS 6955
Cryptococcus neoformans [16] = test: Antifungal activity against Cryptococcus neoformans ATCC 90112

Row | MIC (Candida parapsilosis [1]) | MIC (Pichia kudriavzevii [2]) | MIC (Candida albicans [3]) | MIC (Candida albicans [4]) | MIC (Candida albicans [5]) | MIC (Candida albicans [6]) | MIC (Nakaseomyces glabratus [7]) | MIC (Nakaseomyces glabratus [8]) | MIC (Candida parapsilosis [9]) | MIC (Candida tropicalis [10]) | Compound | MFC (Candida parapsilosis [1]) | MFC (Pichia kudriavzevii [2]) | MFC (Candida albicans [3]) | MFC (Candida albicans [4]) | MFC (Candida albicans [5]) | MFC (Candida albicans [6]) | MFC (Nakaseomyces glabratus [7]) | MFC (Nakaseomyces glabratus [8]) | MFC (Candida parapsilosis [9]) | MFC (Candida tropicalis [10]) | further results
1 | 8 µg/mL (≈ 5.79 µM) | 8 µg/mL (≈ 5.79 µM) | 4 µg/mL (≈ 2.89 µM) | 4 µg/mL (≈ 2.89 µM) | 4 µg/mL (≈ 2.89 µM) | 4 µg/mL (≈ 2.89 µM) | 8 µg/mL (≈ 5.79 µM) | 8 µg/mL (≈ 5.79 µM) | 8 µg/mL (≈ 5.79 µM) | 8 µg/mL (≈ 5.79 µM) | C/C=C1\NC(=O)[C@H](Cc2ccc(O)cc2)NC(=O)[C@H]([C@@H](C)O)NC(=O)[C@@H](NC(=O)[C@@H](NC(=O)C(O)C(O)CCCCCCCCCCC)[C@@H](C)O)[C@@H](C)OC(=O)[C@H](CCC(N)=O)NC(=O)[C@H]([C@@H](C)O[C@@H]2O[C@H](CO)[C@@H](O)[C@H](O)[C@@H]2O)N(C)C(=O)CNC(=O)[C@H](CCC(N)=O)NC1=O (some centres undefined) [HASSALLIDIN A] (X1-TTTY[Dhb]QG[NMeT](X2)Q; ester 2-C) | 8 µg/mL (≈ 5.79 µM) | 8 µg/mL (≈ 5.79 µM) | 8 µg/mL (≈ 5.79 µM) | 4 µg/mL (≈ 2.89 µM) | 4 µg/mL (≈ 2.89 µM) | 4 µg/mL (≈ 2.89 µM) | 8 µg/mL (≈ 5.79 µM) | 8 µg/mL (≈ 5.79 µM) | 16 µg/mL (≈ 11.6 µM) | 8 µg/mL (≈ 5.79 µM) | MFC (Candida tropicalis [11]): 4 µg/mL (≈ 2.89 µM); MIC (Candida tropicalis [11]): 4 µg/mL (≈ 2.89 µM); MFC (Pichia kudriavzevii [12]): 8 µg/mL (≈ 5.79 µM); MIC (Pichia kudriavzevii [12]): 8 µg/mL (≈ 5.79 µM); MFC (Cryptococcus neoformans [13]): 8 µg/mL (≈ 5.79 µM); MIC (Cryptococcus neoformans [13]): 4 µg/mL (≈ 2.89 µM); MFC (Cryptococcus neoformans [14]): 8 µg/mL (≈ 5.79 µM); MIC (Cryptococcus neoformans [14]): 4 µg/mL (≈ 2.89 µM); MFC (Cryptococcus neoformans [15]): 8 µg/mL (≈ 5.79 µM); MIC (Cryptococcus neoformans [15]): 4 µg/mL (≈ 2.89 µM); MFC (Cryptococcus neoformans [16]): 8 µg/mL (≈ 5.79 µM); MIC (Cryptococcus neoformans [16]): 4 µg/mL (≈ 2.89 µM)
2 | 8 µg/mL (≈ 5.23 µM) | 8 µg/mL (≈ 5.23 µM) | 8 µg/mL (≈ 5.23 µM) | 8 µg/mL (≈ 5.23 µM) | 8 µg/mL (≈ 5.23 µM) | 16 µg/mL (≈ 10.5 µM) | 16 µg/mL (≈ 10.5 µM) | 16 µg/mL (≈ 10.5 µM) | 16 µg/mL (≈ 10.5 µM) | 8 µg/mL (≈ 5.23 µM) | C/C=C1\NC(=O)[C@H](Cc2ccc(O)cc2)NC(=O)[C@H]([C@@H](C)O)NC(=O)[C@@H](NC(=O)[C@@H](NC(=O)C(O)C(CCCCCCCCCCC)O[C@@H]2O[C@@H](C)[C@H](O)[C@@H](O)[C@H]2O)[C@@H](C)O)[C@@H](C)OC(=O)[C@H](CCC(N)=O)NC(=O)[C@H]([C@@H](C)O[C@@H]2O[C@H](CO)[C@@H](O)[C@H](O)[C@@H]2O)N(C)C(=O)CNC(=O)[C@H](CCC(N)=O)NC1=O (some centres undefined) (X3-TTTY[Dhb]QG[NMeT](X2)Q; ester 2-C) | 16 µg/mL (≈ 10.5 µM) | 16 µg/mL (≈ 10.5 µM) | 8 µg/mL (≈ 5.23 µM) | 16 µg/mL (≈ 10.5 µM) | 8 µg/mL (≈ 5.23 µM) | 16 µg/mL (≈ 10.5 µM) | 16 µg/mL (≈ 10.5 µM) | 16 µg/mL (≈ 10.5 µM) | > 16 µg/mL | 16 µg/mL (≈ 10.5 µM) | MFC (Candida tropicalis [11]): 16 µg/mL (≈ 10.5 µM); MIC (Candida tropicalis [11]): 16 µg/mL (≈ 10.5 µM); MFC (Pichia kudriavzevii [12]): 16 µg/mL (≈ 10.5 µM); MIC (Pichia kudriavzevii [12]): 16 µg/mL (≈ 10.5 µM); MFC (Cryptococcus neoformans [13]): 8 µg/mL (≈ 5.23 µM); MIC (Cryptococcus neoformans [13]): 8 µg/mL (≈ 5.23 µM); MFC (Cryptococcus neoformans [14]): 8 µg/mL (≈ 5.23 µM); MIC (Cryptococcus neoformans [14]): 8 µg/mL (≈ 5.23 µM); MFC (Cryptococcus neoformans [15]): 8 µg/mL (≈ 5.23 µM); MIC (Cryptococcus neoformans [15]): 8 µg/mL (≈ 5.23 µM); MFC (Cryptococcus neoformans [16]): 8 µg/mL (≈ 5.23 µM); MIC (Cryptococcus neoformans [16]): 8 µg/mL (≈ 5.23 µM)
